Structures can show the parent of a compound that is named as a salt.
Target: T1, Human IP6K1 (Homo sapiens, UniProt Q92551)
T1 construct: GST (N, cleaved yes); made in house; host or cells: C43 E. coli, pGEX-6P-2
Test: IP6K1 high-throughput screen of the Sigma LOPAC (ADP-Glo Max, single point);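 also: final compound concentration 10µM in 5% DMSO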
Assay type: biochemical

[1] = LOPAC single-point screen, ADP-Glo Max raw signal per well
[2] = LOPAC single-point screen, Z-score against plate average and StDev
[3] = LOPAC single-point screen, Z-score from raw signal with plate average and StDev
[4] = LOPAC single-point screen, ADP-Glo Max luminescence raw signal per well
[5] = LOPAC single-point screen, Z-score relative to plate average and StDev
[6] = Sigma LOPAC single-point screen, ADP-Glo Max raw signal per well
[7] = Sigma LOPAC single-point screen, Z-score from plate average and StDev
[8] = LOPAC single-point screen, Z-score from plate average and StDev

T1 sequence (Q92551 whole entry): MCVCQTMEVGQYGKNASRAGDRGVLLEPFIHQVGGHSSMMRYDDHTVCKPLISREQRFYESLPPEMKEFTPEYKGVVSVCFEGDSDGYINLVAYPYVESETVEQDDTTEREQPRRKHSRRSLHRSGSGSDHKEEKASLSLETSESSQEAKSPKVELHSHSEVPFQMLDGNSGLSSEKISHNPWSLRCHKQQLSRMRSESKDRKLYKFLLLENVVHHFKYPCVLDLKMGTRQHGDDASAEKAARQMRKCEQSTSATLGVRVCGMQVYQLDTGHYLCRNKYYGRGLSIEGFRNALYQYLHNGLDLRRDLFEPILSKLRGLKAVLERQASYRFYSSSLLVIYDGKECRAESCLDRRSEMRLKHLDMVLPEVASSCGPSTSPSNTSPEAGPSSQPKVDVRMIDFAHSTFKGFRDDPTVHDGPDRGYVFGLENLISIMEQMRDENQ

O=C(O)/C=C\C(=O)O.O=C(O)/C=C\C(=O)O.c1ccc2nc(N3CCNCC3)ccc2c1 [Quipazine dimaleate]
Raw Signal [1]: 57228 | Z-score [2]: 0.234

O=C(O)/C=C\C(=O)O.O=[N+]([O-])c1ccc2nc(N3CCNCC3)ccc2c1 [Quipazine, 6-nitro-, maleate]
Z-score [3]: -0.2764

CN1CCN(c2ccc3ccccc3n2)CC1.O=C(O)/C=C\C(=O)O.O=C(O)/C=C\C(=O)O [Quipazine, N-methyl-, dimaleate]
Raw Signal [4]: 51627 | Z-score [5]: -0.8542

CCCN1CCC[C@H](c2cccc(O)c2)C1.Cl [R(+)-3PPP hydrochloride]
Raw Signal [4]: 50646 | Z-score [5]: -1.045

Br.C=CCN1CCc2c(cc(O)c(O)c2Br)[C@@H](c2ccccc2)C1 [R(+)-6-Bromo-APB hydrobromide]
Raw Signal [1]: 58651 | Z-score [2]: 0.13

CC(C)NC[C@@H](O)COc1ccc(CC(N)=O)cc1 [R(+)-Atenolol]
Raw Signal [4]: 54301 | Z-score [5]: -0.6362

C[C@@]1(C2CCCC2)Cc2cc(OCC(=O)O)c(Cl)c(Cl)c2C1=O [R(+)-IAA-94]
Raw Signal [4]: 46670 | Z-score [5]: -1.298

CN1CCc2cc(Cl)c(O)cc2[C@@H](c2ccccc2)C1.Cl [R(+)-SCH-23390 hydrochloride]
Raw Signal [1]: 55189 | Z-score [2]: 0.004461

CCN(CC)C(=O)N[C@H]1C[C@@H]2c3cccc4[nH]cc(c34)C[C@H]2N(C)C1 [R(+)-Terguride]
Raw Signal [6]: 59619 | Z-score [7]: 0.6985

CCCN(CCC)[C@@H]1CCc2c(F)ccc(O)c2C1.Cl [R(+)-UH-301 hydrochloride]
Raw Signal [1]: 54775 | Z-score [3]: -0.2426

COc1ccc2c(c1O)-c1cccc3c1[C@@H](C2)N(C)CC3.Cl [R(-)-Apocodeine hydrochloride]
Raw Signal [4]: 50869 | Z-score [5]: -0.8729

COc1ccc(CCNC[C@H](O)c2ccc(O)cc2)cc1OC [R(-)-Denopamine]
Raw Signal [6]: 58220 | Z-score [7]: 0.4267

CC(C)NC[C@H](O)c1ccc(O)c(O)c1.O=C(O)C(O)C(O)C(=O)O [R(-)-Isoproterenol (+)-bitartrate]
Raw Signal [4]: 62194 | Z-score [8]: 1.427

C[C@H](Cc1ccccc1)Nc1ncnc2c1ncn2[C@@H]1O[C@H](CO)[C@@H](O)[C@H]1O [R(-)-N6-(2-Phenylisopropyl)adenosine]
Raw Signal [6]: 58463 | Z-score [7]: 0.6838

Br.C=CCN1CCc2cccc3c2[C@H]1Cc1ccc(O)c(O)c1-3 [R(-)-N-Allylnorapomorphine hydrobromide]
Raw Signal [4]: 62401 | Z-score [8]: 1.469

CCCN1CCc2cccc3c2[C@H]1Cc1ccc(O)c(O)c1-3.Cl [R(-)-Propylnorapomorphine hydrochloride]
Raw Signal [4]: 49804 | Z-score [5]: -1.089

Br.CCCN(CCC)[C@@H]1CCc2ccc(O)cc2C1 [R-(+)-7-Hydroxy-DPAT hydrobromide]
Raw Signal [4]: 62909 | Z-score [8]: 1.572

Br.CCCN(CCC)[C@@H]1CCc2cccc(O)c2C1 [R-(+)-8-Hydroxy-DPAT hydrobromide]
Raw Signal [6]: 58179 | Z-score [7]: 0.6117

C#CCN(C)[C@H](C)Cc1ccccc1.Cl [R-(-)-Deprenyl hydrochloride]
Raw Signal [1]: 53619 | Z-score [3]: -0.1301

C#CCN[C@H](C)Cc1ccccc1.Cl [R-(-)-Desmethyldeprenyl hydrochloride]
Raw Signal [4]: 52026 | Z-score [5]: -0.6379

CNCC[C@@H](Oc1ccc(C(F)(F)F)cc1)c1ccccc1.Cl [R-(-)-Fluoxetine hydrochloride]
Raw Signal [4]: 63921 | Z-score [8]: 1.778

CCCCCC(O)c1cccc(OCc2ccc3ccccc3n2)c1 (stereo not drawn) [REV 5901]
Raw Signal [6]: 62376 | Z-score [7]: 1.234

COC1(C2=NCCN2)COc2ccccc2O1.Cl (stereo not drawn) [RX 821002 hydrochloride]
Raw Signal [1]: 56903 | Z-score [2]: 0.1708

O=C(c1ccc(OCCN2CCCCC2)cc1)c1c(-c2ccc(O)cc2)sc2cc(O)ccc12 [Raloxifene hydrochloride]
Raw Signal [1]: 54124 | Z-score [3]: -0.3691

CNC(=C[N+](=O)[O-])NCCSCc1ccc(CN(C)C)o1 [Ranitidine hydrochloride]
Raw Signal [1]: 57122 | Z-score [2]: 0.2134

COc1ccccc1OCC(O)CN1CCN(CC(=O)Nc2c(C)cccc2C)CC1 (stereo not drawn) [Ranolazine dihydrochloride]
Raw Signal [1]: 54866 | Z-score [3]: -0.2249

COC(=O)[C@H]1[C@H]2C[C@H]3c4[nH]c5ccccc5c4CCN3C[C@H]2CC[C@@H]1O [Rauwolscine hydrochloride]
Raw Signal [1]: 54997 | Z-score [3]: -0.1995

Nc1c(S(=O)(=O)O)cc(Nc2ccc(Nc3nc(Cl)nc(Nc4cccc(S(=O)(=O)O)c4)n3)c(S(=O)(=O)O)c2)c2c1C(=O)c1ccccc1C2=O [Reactive Blue 2]
Raw Signal [4]: 20201 | Z-score [5]: -6.96

COC(=O)[C@H]1[C@H]2C[C@@H]3c4[nH]c5cc(OC)ccc5c4CCN3C[C@H]2C[C@@H](OC(=O)c2cc(OC)c(OC)c(OC)c2)[C@@H]1OC [Reserpine]
Raw Signal [1]: 59002 | Z-score [2]: 0.1918

Oc1ccc(/C=C/c2cc(O)cc(O)c2)cc1 [Resveratrol]
Raw Signal [1]: 54146 | Z-score [3]: -0.3648

CC1=C(/C=C/C(C)=C/C=C/C(C)=C/C(=O)Nc2ccc(O)cc2)C(C)(C)CCC1 [Retinoic acid p-hydroxyanilide]
Raw Signal [1]: 55637 | Z-score [2]: 0.09545

CC1=C(/C=C/C(C)=C/C=C/C(C)=C/C(=O)O)C(C)(C)CCC1 [Retinoic acid]
Raw Signal [4]: 50659 | Z-score [5]: -1.042

NC(=O)c1ncn([C@@H]2O[C@H](CO)[C@@H](O)[C@H]2O)n1 [Ribavirin]
Raw Signal [1]: 54731 | Z-score [3]: -0.2512

C1COC(NC(C2CC2)C2CC2)=N1 [Rilmenidine hemifumarate]
Raw Signal [1]: 56006 | Z-score [2]: -0.003459

Nc1nc2ccc(OC(F)(F)F)cc2s1 [Riluzole]
Raw Signal [4]: 52217 | Z-score [5]: -0.7396

Cc1nc2n(c(=O)c1CCN1CCC(c3noc4cc(F)ccc34)CC1)CCCC2 [Risperidone]
Raw Signal [4]: 53532 | Z-score [5]: -0.4841

Cc1nc2sccn2c(=O)c1CCN1CCC(=C(c2ccc(F)cc2)c2ccc(F)cc2)CC1 [Ritanserin]
Raw Signal [1]: 56847 | Z-score [2]: 0.1599

CC(NCCc1ccc(O)cc1)C(O)c1ccc(O)cc1 (stereo not drawn) [Ritodrine hydrochloride]
Raw Signal [6]: 59316 | Z-score [7]: 0.6396

CNc1cc(NS(=O)(=O)c2ccc(N)cc2)nc(NC)n1.Cl.Cl [Ro 04-6790 dihydrochloride]
Raw Signal [4]: 63150 | Z-score [8]: 1.384

NC(=O)c1ccc(OCC(O)CN2CC=C(c3ccc(F)cc3)CC2)cc1 (stereo not drawn) [Ro 8-4304]
Raw Signal [4]: 63292 | Z-score [8]: 1.412

Cl.NCCNC(=O)c1ccc(Cl)cc1 [Ro 16-6491 hydrochloride]
Raw Signal [6]: 60492 | Z-score [7]: 0.8681

O=C(c1cc(O)c(O)c([N+](=O)[O-])c1)c1ccccc1F [Ro 41-0960]
Raw Signal [6]: 58523 | Z-score [7]: 0.4855

Cl.NCCNC(=O)c1ncsc1-c1cccc(F)c1 [Ro 41-1049 hydrochloride]
Raw Signal [6]: 60989 | Z-score [7]: 0.9646

COc1ccc(C2CNC(=O)C2)cc1OC1CCCC1 (stereo not drawn) [Rolipram]
Raw Signal [1]: 57545 | Z-score [2]: 0.2955
